Measured values taken from patent US20240408169A1 (priority 2023, published 2024).
Like-named read-outs stand apart in the source and are kept apart here. *1 amine or outer side, *2 acyl side, *3 side chain or, on linkers, in order; H or OH if unused. Where a SMILES comes first, the peptide text is derived from it. Bridges are numbered along the chain shown (N, C = ends). [ ]: non-standard residue; d: D form. The star is where a group is joined. X75 = CC(C)C(=O)N1C2C=C(c3ccc(Cl)cc3C[C@@H](C(=O)[*:2])N(C)[*:1])CC1COC2; X57 = CC(C)C(=O)N1C2C=C(c3ccc(Cl)cc3C[C@@H](C(=O)[*:2])N(C)[*:1])CC1CC2; X24 = CN([C@@H](Cc1cc(Cl)ccc1-c1cnn(C(C)(C)C)c1)C(=O)[*:2])[*:1]; X68 = CN([C@@H](Cc1cc(Cl)ccc1-c1cnn(C2CC2)c1)C(=O)[*:2])[*:1]; X26 = CN([C@@H](Cc1cc(F)ccc1-c1cnn(C2CC2)c1)C(=O)[*:2])[*:1]; X97 = CN([C@@H](Cc1cc(Cl)ccc1-c1ccn2ncnc2c1)C(=O)[*:2])[*:1]; NMehhhLys(Me) = CN([C@@H](CCCCCCCN(C)[*:3])C(=O)[*:2])[*:1]; Spiro(3.3)heptane2CO(2-CF3) = O=C(C1(C(F)(F)F)CC2(CCC2)C1)*; X15 = CN([C@@H](Cc1cc(Cl)ccc1-c1cnn2c1CCC2)C(=O)[*:2])[*:1]; X5 = CN([C@@H](Cc1cc(Cl)ccc1-c1cnn2c1OCCC2)C(=O)[*:2])[*:1]; X51 = CSc1cncc(-c2ccc(Cl)cc2C[C@@H](C(=O)[*:2])N(C)[*:1])c1; X22 = CN([C@@H](Cc1cc(Cl)ccc1-c1cnn(C)c1)C(=O)[*:2])[*:1]; X109 = CN([C@@H](Cc1cc(Cl)ccc1-c1ccncc1)C(=O)[*:2])[*:1]; NMe(hhhLys) = CN([C@@H](CCCCCCCN[*:3])C(=O)[*:2])[*:1]; Oxane2carbonyl(2R-CF3) = O=C([C@@]1(C(F)(F)F)CCCCO1)*; Cyclobutanecarbonyl(1-CF3) = O=C(C1(C(F)(F)F)CCC1)*; cBuCO(3,3-F2-1-CF3) = O=C(C1(C(F)(F)F)CC(F)(F)C1)*; Pro(trans-4-F) = O=C(O)[C@@H]1C[C@@H](F)CN1; X27 = O=C([C@]1(C(F)(F)F)CCCCO1)*; Gly(cPr) = N[C@H](C(=O)O)C1CC1

Columns and labels:
CyclinA2/CDK2 = biological target: T1, CyclinA2/CDK2 (Homo sapiens, UniProt P20248); test: Fluorescence Polarization (FP) competitive binding assay, Cyclin A2/Cdk2;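 note: plates equilibrated two hours at room temperature before polarization reading, IC50 fitted from eight-concentration compound titration curves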
T1 construct: purchased CRELUX Protein Services

CyclinB1/CDK1 = biological target: T2, CyclinB1/CDK1 (Homo sapiens, UniProt P14635); test: Fluorescence Polarization (FP) competitive binding assay, Cyclin B1/Cdk1;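 note: fluorescence polarization read after equilibration at room temperature, with IC50 taken from serially diluted dose-response curves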
T2 construct: purchased Eurofins, discovery 14-450

CyclinE1/CDK2 = biological target: T3, CyclinE1/CDK2 (Homo sapiens, UniProt P24864); test: Fluorescence Polarization (FP) competitive binding assay, Cyclin E1/Cdk2;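 note: readings taken after two-hour equilibration at room temperature in HEPES buffer with NaCl, DTT, NP-40 and BSA, IC50 fitted from eight-concentration serial dilution series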
T3 construct: purchased Eurofins, discovery 14-475

WI-38 cells = test: MTT proliferation assay, WI-38; assay type: cell-based; conditions: 3 days compound exposure, 1:3 serial dilution starting at 10 μM;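 note: Eight- or ten-point dilution series, with exposure length chosen to span about three to four cell doublings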
NCI-H1048 cells = test: MTT proliferation assay, NCI-H1048; assay type: cell-based; conditions: 5 days compound exposure, 1:3 serial dilution starting at 10 μM;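 note: Dose-response in 96-well plates over 8 or 10 concentration points, with exposure spanning 3-4 cell doublings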
OVCAR3 cells = test: MTT proliferation assay, OVCAR3; assay type: cell-based; conditions: 5 days compound exposure, 1:3 serial dilution starting at 10 μM;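 note: compound given as an 8- or 10-point series, one day after plating, with exposure covering roughly 3-4 cell doublings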
[1] = 8 nM Cyclin A2/Cdk2, 2 nM FAM probe, average of 2-3 independent experiments, read-out: Cyclin A FP IC50
[2] = 10 nM Cyclin B1/Cdk1, 2 nM FAM probe; average of 2-3 independent experiments; read-out: Cyclin B FP IC50
[3] = 10 nM Cyclin E1/Cdk2, 2 nM FAM probe, average of 2-3 independent experiments, read-out: Cyclin E FP IC50

| SMILES | IC50 (CyclinA2/CDK2; [1]) [nM] | IC50 (CyclinB1/CDK1; [2]) [nM] | IC50 (CyclinE1/CDK2; [3]) [nM] | GI50 (WI-38 cells) [nM] | GI50 (NCI-H1048 cells) [nM] | GI50 (OVCAR3 cells) [nM] | IC50 (CyclinA2/CDK2) [nM] | IC50 (CyclinB1/CDK1; read-out: Cyclin B FP IC50; 10 nM Cyclin B1/Cdk1, 2 nM FAM probe; average of 2-3 independent experiments) [nM] | IC50 (CyclinE1/CDK2) [nM] |
| --- | --- | --- | --- | --- | --- | --- | --- | --- | --- |
| CC(C)C[C@@H]1NC(=O)[C@@H](N(C)C(=O)[C@@H](NC(=O)[C@@H]2C[C@@H](F)CN2C(=O)C2(C(F)(F)F)CC(F)(F)C2)C2CC2)CCCCCCCN(C)C(=O)[C@H](Cc2cc(Cl)ccc2-c2ccn3ncnc3c2)N(C)C1=O [Example 179] ({cBuCO(3,3-F2-1-CF3)}-[Pro(trans-4-F)][Gly(cPr)][NMehhhLys(Me)]L[X97]; lactam 3-C) | 30 | 20 | 1130 | 11600 | 10 | 30 |  |  |  |
| CC(C)C[C@@H]1NC(=O)[C@@H](N(C)C(=O)[C@@H](NC(=O)[C@@H]2C[C@@H](F)CN2C(=O)[C@]2(C(F)(F)F)CCCCO2)C2CC2)CCCCCCCN(C)C(=O)[C@H](Cc2cc(Cl)ccc2-c2cnn(C)c2)N(C)C1=O [Example 183] (X27-[Pro(trans-4-F)][Gly(cPr)][NMehhhLys(Me)]L[X22]; lactam 3-C) | 30 | 20 | 280 | 5070 | 10 | 20 |  |  |  |
| CC(C)C[C@@H]1NC(=O)[C@@H](N(C)C(=O)[C@@H](NC(=O)[C@@H]2C[C@@H](F)CN2C(=O)[C@@]2(C(F)(F)F)CCCCO2)C2CC2)CCCCCCCN(C)C(=O)[C@H](Cc2cc(Cl)ccc2-c2cnn(C)c2)N(C)C1=O [Example 184] ({Oxane2carbonyl(2R-CF3)}-[Pro(trans-4-F)][Gly(cPr)][NMehhhLys(Me)]L[X22]; lactam 3-C) | 20 | 20 | 100 | 3650 | 10 | 10 |  |  |  |
| CC(C)C[C@@H]1NC(=O)[C@@H](N(C)C(=O)[C@@H](NC(=O)[C@@H]2C[C@@H](F)CN2C(=O)C2(C(F)(F)F)CCC2)C2CC2)CCCCCCCN(C)C(=O)[C@H](Cc2cc(Cl)ccc2-c2cnn(C)c2)N(C)C1=O [Example 185] ({Cyclobutanecarbonyl(1-CF3)}-[Pro(trans-4-F)][Gly(cPr)][NMehhhLys(Me)]L[X22]; lactam 3-C) | 20 | 20 | 110 | 10400 | 10 | 10 |  |  |  |
| CC(C)C[C@@H]1NC(=O)[C@@H](N(C)C(=O)[C@@H](NC(=O)[C@@H]2C[C@@H](F)CN2C(=O)C2(C(F)(F)F)CCC2)C2CC2)CCCCCCCN(C)C(=O)[C@H](Cc2cc(F)ccc2-c2cnn(C3CC3)c2)N(C)C1=O [Example 186] ({Cyclobutanecarbonyl(1-CF3)}-[Pro(trans-4-F)][Gly(cPr)][NMehhhLys(Me)]L[X26]; lactam 3-C) | 20 | 20 | 100 | 8680 | 10 | 10 |  |  |  |
| CC(C)C[C@@H]1NC(=O)[C@@H](N(C)C(=O)[C@@H](NC(=O)[C@@H]2C[C@@H](F)CN2C(=O)C2(C(F)(F)F)CC(F)(F)C2)C2CC2)CCCCCCCN(C)C(=O)[C@H](Cc2cc(Cl)ccc2-c2cnn(C(C)(C)C)c2)N(C)C1=O [Example 187] ({cBuCO(3,3-F2-1-CF3)}-[Pro(trans-4-F)][Gly(cPr)][NMehhhLys(Me)]L[X24]; lactam 3-C) | 20 | 20 | 340 | 8660 | 10 | 10 |  |  |  |
| CC(C)C[C@@H]1NC(=O)[C@@H](N(C)C(=O)[C@@H](NC(=O)[C@@H]2C[C@@H](F)CN2C(=O)C2(C(F)(F)F)CCC2)C2CC2)CCCCCCCNC(=O)[C@H](Cc2cc(Cl)ccc2-c2cnn(C3CC3)c2)N(C)C1=O [Example 188] ({Cyclobutanecarbonyl(1-CF3)}-[Pro(trans-4-F)][Gly(cPr)][NMe(hhhLys)]L[X68]; lactam 3-C) | 20 | 20 | 230 | 3080 | 10 | 20 |  |  |  |
| CC(C)C[C@@H]1NC(=O)[C@@H](N(C)C(=O)[C@@H](NC(=O)[C@@H]2C[C@@H](F)CN2C(=O)C2(C(F)(F)F)CC(F)(F)C2)C2CC2)CC=CCCCCNC(=O)[C@H](Cc2cc(Cl)ccc2-c2cnn(C3CC3)c2)N(C)C1=O [Example 189] | 50 | 20 | 850 | 3670 | 130 | 80 |  |  |  |
| CC(C)C[C@@H]1NC(=O)[C@@H](N(C)C(=O)[C@@H](NC(=O)[C@@H]2C[C@@H](F)CN2C(=O)C2(C(F)(F)F)CC(F)(F)C2)C2CC2)CCCCCCCN(C)C(=O)[C@H](Cc2cc(Cl)ccc2-c2cnn3c2CCC3)N(C)C1=O [Example 190] ({cBuCO(3,3-F2-1-CF3)}-[Pro(trans-4-F)][Gly(cPr)][NMehhhLys(Me)]L[X15]; lactam 3-C) | 20 | 20 | 660 | 1980 | 10 | 10 |  |  |  |
| CC(C)C[C@@H]1NC(=O)[C@@H](N(C)C(=O)[C@@H](NC(=O)[C@@H]2C[C@@H](F)CN2C(=O)C2(C(F)(F)F)CC(F)(F)C2)C2CC2)CCCCCCCN(C)C(=O)[C@H](Cc2cc(Cl)ccc2-c2cnn3c2OCCC3)N(C)C1=O [Example 191] ({cBuCO(3,3-F2-1-CF3)}-[Pro(trans-4-F)][Gly(cPr)][NMehhhLys(Me)]L[X5]; lactam 3-C) | 20 | 20 | 260 | 2050 | 10 | 10 |  |  |  |
| CC(C)C[C@@H]1NC(=O)[C@@H](N(C)C(=O)[C@@H](NC(=O)[C@@H]2C[C@@H](F)CN2C(=O)C2(C(F)(F)F)CC(F)(F)C2)C2CC2)CCCCCCCN(C)C(=O)[C@H](Cc2cc(Cl)ccc2-c2ccncc2)N(C)C1=O [Example 192] ({cBuCO(3,3-F2-1-CF3)}-[Pro(trans-4-F)][Gly(cPr)][NMehhhLys(Me)]L[X109]; lactam 3-C) | 20 | 20 | 1140 | 3510 | 20 | 20 |  |  |  |
| CC(C)C[C@@H]1NC(=O)[C@@H](N(C)C(=O)[C@@H](NC(=O)[C@@H]2C[C@@H](F)CN2C(=O)C2(C(F)(F)F)CC(F)(F)C2)C2CC2)CCCCCCCNC(=O)[C@H](Cc2cc(Cl)ccc2C2=CC3CCC(C2)N3C(=O)C(C)C)N(C)C1=O (stereo partly drawn) [Example 193] ({cBuCO(3,3-F2-1-CF3)}-[Pro(trans-4-F)][Gly(cPr)][NMe(hhhLys)]L[X57]; lactam 3-C) | 20 | 20 | 710 | 7580 | 10 | 20 |  |  |  |
| CC(C)C[C@@H]1NC(=O)[C@@H](N(C)C(=O)[C@@H](NC(=O)[C@@H]2C[C@@H](F)CN2C(=O)C2(C(F)(F)F)CC(F)(F)C2)C2CC2)CCCCCCCNC(=O)[C@H](Cc2cc(Cl)ccc2C2=CC3COCC(C2)N3C(=O)C(C)C)N(C)C1=O (stereo partly drawn) [Example 194] ({cBuCO(3,3-F2-1-CF3)}-[Pro(trans-4-F)][Gly(cPr)][NMe(hhhLys)]L[X75]; lactam 3-C) | 20 | 20 | 540 | 5610 | 10 | 10 |  |  |  |
| CSc1cncc(-c2ccc(Cl)cc2C[C@H]2C(=O)N(C)CCCCCCC[C@H](N(C)C(=O)[C@@H](NC(=O)[C@@H]3C[C@@H](F)CN3C(=O)C3(C(F)(F)F)CC(F)(F)C3)C3CC3)C(=O)N[C@@H](CC(C)C)C(=O)N2C)c1 [Example 202] ({cBuCO(3,3-F2-1-CF3)}-[Pro(trans-4-F)][Gly(cPr)][NMehhhLys(Me)]L[X51]; lactam 3-C) | 50 | 20 | 1490 | 9110 | 40 | 60 |  |  |  |
| CC(C)C[C@@H]1NC(=O)[C@@H](N(C)C(=O)[C@@H](NC(=O)[C@@H]2C[C@@H](F)CN2C(=O)C2(C(F)(F)F)CC3(CCC3)C2)C2CC2)CCCCCCCN(C)C(=O)[C@H](Cc2cc(Cl)ccc2-c2cnn(C)c2)N(C)C1=O [Example 203] ({Spiro(3.3)heptane2CO(2-CF3)}-[Pro(trans-4-F)][Gly(cPr)][NMehhhLys(Me)]L[X22]; lactam 3-C) |  |  |  | 3700 | 60 | 50 | 40 | 20 | 1260 |
